Source: paper PMC5988692, “AZ304, a novel dual BRAF inhibitor, exerts anti-tumour effects in colorectal cancer independently of BRAF genetic status” (British Journal of Cancer, 2018)

Legend:
CDK2 = CDK2 (Homo sapiens, UniProt P24941); experiment: AlphaScreen kinase assay (Rb peptide); format: biochemical; settings: ATP Km
Method: (§1) For RAF kinases, detailed assay information was described in ref.[18] Briefly, the kinase activity of BRAF WT, BRAF V600E, or CRAF was measured using an AlphaScreen assay (Perkin Elmer, MA) monitoring MEK1/2 phosphorylation at Ser217/221. For CDK2 and CDK4 kinases, activity was also measured by AlphaScreen, monitoring phosphorylation of biotin Rb peptide at Ser780. Similarly, MAP3K7, CSF1R and JAK2 kinase activity was measured by phosphorylation of their biotinylated substrates MKK6 kinase dead protein at Ser271/Thr275, or tyrosine phosphorylation of pEY or Tyk2 Tyr1054/1055 peptides, respectively. CSK, IGF1R, EGFR, FGFR1 and SRC kinase activity was measured using a sandwich ELISA detecting phosphorylated poly EAY peptide with a HRP conjugated phosphotyrosine antibody and TMB substrate, while p38 kinase activity was measured by monitoring phosphorylation of MBP protein with radiolabeled ^33P-ATP in a filter binding format. All assays were screened under respective ATP Km conditions and inhibitor IC50s were derived from either 5 (RAF kinases, CDK2, CDK4, MAP3K7, JAK2), 10 (CSK, IGF1R, EGFR, FGFR1, SRC) or 11 (p38, CSF1R) point compound dose response.

CDK4 = CDK4 (Homo sapiens, UniProt P11802); experiment: AlphaScreen kinase assay (Rb peptide); format: biochemical; settings: ATP Km
Sequence of CDK4 (P11802 whole entry, species assumed): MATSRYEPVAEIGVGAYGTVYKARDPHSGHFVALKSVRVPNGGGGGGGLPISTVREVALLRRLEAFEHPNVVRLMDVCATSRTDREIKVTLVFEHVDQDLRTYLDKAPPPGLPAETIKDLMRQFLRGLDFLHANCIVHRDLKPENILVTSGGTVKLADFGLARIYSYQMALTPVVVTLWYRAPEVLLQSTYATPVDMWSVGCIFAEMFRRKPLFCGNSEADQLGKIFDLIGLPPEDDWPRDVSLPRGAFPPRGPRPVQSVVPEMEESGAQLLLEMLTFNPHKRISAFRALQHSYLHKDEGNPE
Sequence of CDK4 (P24385 whole entry partner, species assumed): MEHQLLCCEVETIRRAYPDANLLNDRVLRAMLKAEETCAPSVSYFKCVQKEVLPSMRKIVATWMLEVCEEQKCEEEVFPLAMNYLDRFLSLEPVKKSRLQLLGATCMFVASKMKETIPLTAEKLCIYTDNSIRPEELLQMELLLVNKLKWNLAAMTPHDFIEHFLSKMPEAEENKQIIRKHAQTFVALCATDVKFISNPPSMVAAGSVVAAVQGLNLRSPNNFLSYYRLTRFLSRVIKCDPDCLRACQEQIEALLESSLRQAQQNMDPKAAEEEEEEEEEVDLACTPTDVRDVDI
Method: as §1

A2058 = experiment: Cell proliferation assay (cell panel, MTS); format: cell-based; settings: Homo sapiens, 72 h; A2058, Melanoma, BRAF V600E HT, RAS WT, 3 days
Method: (§2) The proliferation assays against a cell panel were performed as described in ref.[18] Briefly, the cells were treated with DMSO or multiple concentrations of AZ304 for 3 days. The cell growth was determined using the CellTiter 96 Aqueous One Cell Proliferation Assay (Promega, Madison, WI). […] The assays were done in triplicate across different plates.
(§3) Anti-proliferative activity of AZ304 against a panel of cell lines with different BRAF and RAS genetic status. […] Cell growth was determined by MTS assay.

A375pgp = experiment: Cell proliferation assay (cell panel, MTS); format: cell-based; settings: Homo sapiens, 72 h, Melanoma, BRAF V600E HM, RAS WT, 3 days
Method: as §2, §3

A375 = experiment: Cell proliferation assay (cell panel, MTS); format: cell-based; settings: Homo sapiens, A-375, 72 h; A375, Melanoma, BRAF V600E HM, RAS WT, 3 days
Method: as §2, §3

A549 = experiment: Cell proliferation assay (cell panel, MTS); format: cell-based; settings: Homo sapiens, 72 h; A549, Lung, BRAF WT, KRAS MT, 3 days
Method: as §2, §3

CHL-1 = experiment: Cell proliferation assay (cell panel, MTS); format: cell-based; settings: Homo sapiens, 72 h; CHL-1, Melanoma, BRAF WT, RAS WT, 3 days
Method: as §2, §3

Calu-6 = experiment: Cell proliferation assay (cell panel, MTS); format: cell-based; settings: Homo sapiens, 72 h; Calu-6, Lung, BRAF WT, KRAS MT, 3 days
Method: as §2, §3

DU145 = experiment: Cell proliferation assay (cell panel, MTS); format: cell-based; settings: Homo sapiens, DU-145, 72 h; DU145, Prostate, BRAF WT, RAS WT, 3 days
Method: as §2, §3

HCT-15 = experiment: Cell proliferation assay (cell panel, MTS); format: cell-based; settings: Homo sapiens, 72 h; HCT-15, Colon, BRAF WT, KRAS MT, 3 days
Method: as §2, §3

HT29 = experiment: Cell proliferation assay (cell panel, MTS); format: cell-based; settings: Homo sapiens, HT-29, 72 h; HT29, Colon, BRAF V600E HT, RAS WT, 3 days
Method: as §2, §3

IM-9 = experiment: Cell proliferation assay (cell panel, MTS); format: cell-based; settings: Homo sapiens, 72 h; IM-9, Lymphoma, BRAF WT, NRAS MT, 3 days
Method: as §2, §3

L-363 = experiment: Cell proliferation assay (cell panel, MTS); format: cell-based; settings: Homo sapiens, 72 h; L-363, Leukemia, BRAF WT, NRAS MT, 3 days
Method: as §2, §3

LNCaP clone FGC = experiment: Cell proliferation assay (cell panel, MTS); format: cell-based; settings: Homo sapiens, 72 h, Prostate, BRAF WT, RAS WT, 3 days
Method: as §2, §3

MDA-MB-468 = experiment: Cell proliferation assay (cell panel, MTS); format: cell-based; settings: Homo sapiens, 72 h; MDA-MB-468, Breast, BRAF WT, RAS WT, 3 days
Method: as §2, §3

MIAPaCa-2 = experiment: Cell proliferation assay (cell panel, MTS); format: cell-based; settings: Homo sapiens, MIA PaCa-2, 72 h; MIAPaCa-2, Pancreas, BRAF WT, KRAS MT, 3 days
Method: as §2, §3

NCI-H460 = experiment: Cell proliferation assay (cell panel, MTS); format: cell-based; settings: Homo sapiens, 72 h; NCI-H460, Lung, BRAF WT, KRAS MT, 3 days
Method: as §2, §3

NIH: OVCAR-3 = experiment: Cell proliferation assay (cell panel, MTS); format: cell-based; settings: Homo sapiens, 72 h; NIH: OVCAR-3, Ovary, BRAF WT, RAS WT, 3 days
Method: as §2, §3

PANC-1 = experiment: Cell proliferation assay (cell panel, MTS); format: cell-based; settings: Homo sapiens, 72 h; PANC-1, Pancreas, BRAF WT, KRAS MT, 3 days
Method: as §2, §3

PC-3 = experiment: Cell proliferation assay (cell panel, MTS); format: cell-based; settings: Homo sapiens, 72 h; PC-3, Prostate, BRAF WT, RAS WT, 3 days
Method: as §2, §3

RPMI-8226 = experiment: Cell proliferation assay (cell panel, MTS); format: cell-based; settings: Homo sapiens, RPMI-8226, 72 h; BRAF WT, KRAS MT, 3 days
Method: as §2, §3

SK-BR-3 = experiment: Cell proliferation assay (cell panel, MTS); format: cell-based; settings: Homo sapiens, 72 h; SK-BR-3, Breast, BRAF WT, RAS WT, 3 days
Method: as §2, §3

SK-MEL-24 = experiment: Cell proliferation assay (cell panel, MTS); format: cell-based; settings: Homo sapiens, 72 h; SK-MEL-24, Melanoma, BRAF V600E, RAS WT, 3 days
Method: as §2, §3

SK-MEL-2 = experiment: Cell proliferation assay (cell panel, MTS); format: cell-based; settings: Homo sapiens, 72 h; SK-MEL-2, Melanoma, BRAF WT, NRAS MT, 3 days
Method: as §2, §3

U937 = experiment: Cell proliferation assay (cell panel, MTS); format: cell-based; settings: Homo sapiens, U-937, 72 h; U937, Lymphoma, BRAF WT, RAS WT, 3 days
Method: as §2, §3

COc1ccc2c(Nc3cc(NC(=O)c4cccc(C(C)(C)C#N)c4)ccc3C)ncnc2c1 [AZ304]
IC50 (CDK2): > 10 µM | IC50 (CDK4): > 10 µM | GI50 (A2058): 3.82 µM | GI50 (A375pgp): 0.43 µM | GI50 (A375): 0.23 µM | GI50 (A549): 16.7 µM | GI50 (CHL-1): 8.27 µM | GI50 (Calu-6): 5.51 µM | GI50 (DU145): 11.7 µM | GI50 (HCT-15): 11.5 µM | GI50 (HT29): 0.51 µM | GI50 (IM-9): 0.9 µM | GI50 (L-363): 7.02 µM | GI50 (LNCaP clone FGC): 3.32 µM | GI50 (MDA-MB-468): 8.83 µM | GI50 (MIAPaCa-2): 1.16 µM | GI50 (NCI-H460): 8.56 µM | GI50 (NIH: OVCAR-3): 11 µM | GI50 (PANC-1): 5.45 µM | GI50 (PC-3): 6.68 µM | GI50 (RPMI-8226): 5.37 µM | GI50 (SK-BR-3): 11.6 µM | GI50 (SK-MEL-24): 0.08 µM | GI50 (SK-MEL-2): 3.91 µM | GI50 (U937): 9.37 µM
